# Test results: patent US12275729B2 (Merck Sharp & Dohme LLC, priority 2017, dated 2025)
# Target: IDO1 (Homo sapiens, UniProt P14902)
# Experiment: IDO1 Cellular Assay in HeLa Cells Stimulated with IFNγ
# Format: cell-based
# Conditions: about 48 hours, read-out: Hela IC50
# Experimental: Biological Assays IDO1 Cellular Assay in HeLa Cells Stimulated with IFNγ
# HeLa cells were cultured in complete HeLa culture medium (90% EMEM, 10% heat-inactivated fetal bovine serum) and expanded to about 1×10^9 cells. The cells were then collected and frozen down at 1×10^7 cells/vial in 1 mL frozen medium (90% complete HeLa culture medium, 10% DMSO).
# Compounds to be tested were serially diluted in ten 3-fold steps in DMSO starting from 10 mM DMSO stocks in Echo low volume plate(s).
# Frozen HeLa cells were thawed and transferred into HeLa assay medium (99% complete HeLa culture medium, 1% Pen/Strep) with 20 mL medium/vial of cells. The cells were spun down at 250 g in a table top centrifuge for 5 min and suspended in same volume of HeLa assay medium. The cells were then counted and adjusted to a density of 2×10^5 cells/mL in HeLa assay medium. Sterile L-tryptophan were added to the cells with final concentration of 300 uM L-tryptophan. A small aliquot (2 mL/plate) of HeLa cells were set aside and were not treated with IFNγ, to serve as the Max-E control.
# HeLa cells with and without IFNγ were dispensed to the respective wells of 384-well assay plates containing the compounds. The plates were incubated for about 48 hours at a 37° C., 5% CO2 incubator. Afterwards, 12 μL of 0.5 M methyl isonipecotate in dimethyl sulfoxide were added into each well and the plates were sealed and incubated at 37° C. without CO2 overnight. The plates were centrifuged for 1 min at 200×g. The resulting fluorescence was measured in a Spectramax plate reader (Molecular Devices) with a 400 nm excitation filter and a 510 nm emission filter.
# Potencies were calculated by […] least squares fit to the four parameter logistic IC50 equation.
# Chain of IDO1 (P14902 whole entry): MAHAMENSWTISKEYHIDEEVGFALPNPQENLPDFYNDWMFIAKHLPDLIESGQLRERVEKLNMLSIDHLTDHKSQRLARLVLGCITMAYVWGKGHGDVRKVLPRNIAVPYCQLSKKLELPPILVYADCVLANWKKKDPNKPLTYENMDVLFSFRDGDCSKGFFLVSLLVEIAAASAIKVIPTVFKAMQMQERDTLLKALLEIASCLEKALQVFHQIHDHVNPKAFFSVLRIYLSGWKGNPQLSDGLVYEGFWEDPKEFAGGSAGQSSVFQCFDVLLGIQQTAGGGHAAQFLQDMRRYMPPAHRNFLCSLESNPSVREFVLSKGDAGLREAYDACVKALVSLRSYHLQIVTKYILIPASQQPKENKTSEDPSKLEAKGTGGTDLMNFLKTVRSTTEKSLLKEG
row,SMILES,IC50
1,"CC(C)[C@@H](O)C(=O)N1CCCc2cc([C@H](C)C(=O)Nc3ccc(F)cc3)ccc21 (single isomer, unassigned) [Example 72]",0.0438 µM
2,"CC(C(=O)Nc1ccc(Cl)cc1)c1ccc2c(c1)CC(F)CN2C(=O)c1cccc(Cl)c1 (single isomer, unassigned) [Example 258, 2-(1-(3-chlorobenzoyl)-3-fluoro-1,2,3,4-tetrahydroquinolin-6-yl)-N-(4-chlorophenyl)propanamide]",0.00586 µM
3,"CC(NC(=O)c1ccc(F)cc1)c1ccc2c(n1)CCCN2C(=O)c1ccccn1 (stereo not drawn) [Example 280, 2-(1-(4-fluorobenzamido)ethyl)-5-picolinoyl-5,6,7,8-tetrahydro-1,5-naphthyridin-1-ium 2,2,2-trifluoroacetate]",0.007 µM
4,"O=C(NC1(c2ccc3c(n2)CCCN3C(=O)C2CC2)CCC1)c1ccc(Cl)cc1 [Example 183, 4-chloro-N-{1-[5-(cyclopropanecarbonyl)-5,6,7,8-tetrahydro-1,5-naphthyridin-2-yl]cyclobutyl}benzamide]",0.0052 µM
5,"CC(NC(=O)c1ccc(F)cc1)c1ccc2c(n1)C(F)CCN2C(=O)C1CC1 (single isomer, unassigned) [Example 201, N-(1-(5-(cyclopropanecarbonyl)-8-fluoro-5,6,7,8-tetrahydro-1,5-naphthyridin-2-yl)ethyl)-4-fluorobenzamide]",0.186 µM
6,"O=C(NC1(c2ccc3c(n2)CCCN3C(=O)NC2CC2)CC1)c1ccc(F)cc1 [Example 214, N-cyclopropyl-6-{1-[(4-fluorobenzene-1-carbonyl)amino]cyclopropyl}-3,4-dihydro-1,5-naphthyridine-1(2H)-carboxamide]",0.159 µM
7,"Cc1nccc(N2CCCc3nc(C4(C(=O)Nc5ccc(F)cc5)CCC4)ccc32)n1 [Example 403, N-(4-fluorophenyl)-1-(5-(2-methylpyrimidin-4-yl)-5,6,7,8-tetrahydro-1,5-naphhyridin-2-yl)cyclobutane-1-carboxamide]",0.00215 µM
8,"CC(NC(=O)c1ccc(F)cc1)c1ccc2c(n1)CCCN2C(=O)c1cccc(Cl)c1Cl (stereo not drawn) [Example 148, N-{1-[5-(2,3-dichlorobenzene-1-carbonyl)-5,6,7,8-tetrahydro-1,5-naphthyridin-2-yl]ethyl}-4-fluorobenzamide]",0.0025 µM
9,"CC(NC(=O)c1ccc(F)cc1)c1ccc2c(n1)CCCN2C(=O)C1(C)CCCCO1 (stereo in doubt) [Example 140, 4-fluoro-N-(1-{5-[(2R)-2-methyloxane-2-carbonyl]-5,6,7,8-tetrahydro-1,5-naphthyridin-2-yl}ethyl)benzamide]",1.62 µM
10,"CC(C)CC(=O)N1CCCc2cc(C(C)NC(=O)c3ccc(Cl)cc3)ccc21 (single isomer, unassigned) [Example 26, 4-chloro-N-{1-[1-(3-methylbutanoyl)-1,2,3,4-tetrahydroquinolin-6-yl]ethyl}benzamide]",0.0043 µM
11,"O=C(c1cocn1)N1CCCc2cc(C3(C(=O)Nc4ccc(F)cn4)CCC3)ccc21 [Example 121, N-(5-fluoropyridin-2-yl)-1-[1-(1,3-oxazole-4-carbonyl)-1,2,3,4-tetrahydroquinolin-6-yl]cyclobutane-1-carboxamide]",0.0041 µM
12,"CC(C(=O)Nc1ccc(F)cc1)c1ccc2c(n1)CCCN2C(=O)[C@@H]1CCCO1 (single isomer, unassigned) [Example 164]",0.0011 µM

# The next lines start with the values.
row,IC50,SMILES
1,0.00191 µM,"Cc1ccnc(C(=O)N2CCCc3nc(C4(C(=O)Nc5ccc(F)cc5)COC4)ccc32)n1 [Example 400, N-(4-fluorophenyl)-3-(5-(4-methylpyrimidine-2-carbonyl)-5,6,7,8-tetrahydro-1,5-naphthyridin-2-yl)oxetane-3-carboxamide]"
2,0.0218 µM,"COC(=O)N1CCCc2nc(C3(C(=O)Nc4ccc(F)cc4)CC3)ccc21 [Example 222, methyl 6-{1-[(4-fluorophenyl)carbamoyl]cyclopropyl}-3,4-dihydro-1,5-naphthyridine-1(2H)-carboxylate]"
3,0.729 µM,"C[C@@H](NC(=O)c1ccc(F)cn1)c1ccc2c(c1)CCCN2C(=O)C1(F)CC1 (single isomer, unassigned) [Example 33]"
4,0.018 µM,"C[C@H](C(=O)Nc1ccc(F)cn1)c1ccc2c(c1)CCCN2C(=O)c1cccc(Cl)c1 (single isomer, unassigned) [Example 54]"
5,0.103 µM,"CC(C)CC(=O)N1CCCc2cc(CNC(=O)c3cccc(Cl)c3)ccc21 [Example 2, 3-chloro-N-{[1-(3-methylbutanoyl)-1,2,3,4-tetrahydroquinolin-6-yl]methyl}benzamide]"
6,0.0022 µM,"CCOC(=O)N1CCCc2cc(C3(C(=O)Nc4ccc(F)cn4)CCC3)ccc21 [Example 211, ethyl 6-{1-[(5-fluoropyridin-2-yl)carbamoyl]-cyclobutyl}-3,4-dihydroquinoline-1(2H)-carboxylate]"

# Same assay, conditions: read-out: Hela IC50
row,SMILES,IC50
1,"COc1ccnc(N2CCCc3nc(C(C)NC(=O)c4ccc(F)cc4)ccc32)c1 (stereo not drawn) [Example 377, 4-fluoro-N-(1-(5-(4-methoxypyridin-2-yl)-5,6,7,8-tetrahydro-1,5-naphthyridin-2-yl)ethyl)benzamide]",0.315 µM
2,"CC(NC(=O)c1ccc(F)cc1)c1ccc2c(n1)CCCN2c1cc(F)ccn1 (stereo not drawn) [Example 380, 4-fluoro-N-(1-(5-(4-fluoropyridin-2-yl)-5,6,7,8-tetrahydro-1,5-naphthyridin-2-yl)ethyl)benzamide]",0.0745 µM
3,"CC(NC(=O)c1ccc(Cl)cc1)c1ccc2c(n1)CCCN2c1nc(Cl)nc2c1CCCC2 (stereo not drawn) [Example 361, 5-(2-chloro-5,6,7,8-tetrahydroquinazolin-4-yl)-2-(1-(4-chlorobenzamido)ethyl)-5,6,7,8-tetrahydro-1,5-naphthyridin-1-ium 2,2,2-trifluoroacetate]",0.00835 µM
4,"C[C@H](NC(=O)c1ccc(F)cc1)c1ccc2c(n1)CCCN2c1cccc(OC(C)(C)C)n1 [Example 385, (S)-N-(1-(5-(6-(tert-butoxy)pyridin-2-yl)-5,6,7,8-tetrahydro-1,5-naphthyridin-2-yl)ethyl)-4-fluorobenzamide]",0.968 µM

# Second part, the molecule after the results:
row,IC50,SMILES
1,0.013 µM,"COc1cc(N2CCCc3nc(C(C)NC(=O)c4ccc(F)cc4)ccc32)ncn1 (stereo not drawn) [Example 379, 4-fluoro-N-(1-(5-(6-methoxypyrimidin-4-yl)-5,6,7,8-tetrahydro-1,5-naphthyridin-2-yl)ethyl)benzamide]"
2,0.0414 µM,"C[C@H](NC(=O)c1ccc(F)cc1)c1ccc2c(n1)CCCN2c1cccc(=O)[nH]1 [Example 386, (S)-2-(1-(4-fluorobenzamido)ethyl)-5-(6-oxo-1,6-dihydropyridin-2-yl)-5,6,7,8-tetrahydro-1,5-naphthyridin-1-ium 2,2,2-trifluoroacetate]"
3,0.00534 µM,"Cc1nccc(N2CCCc3nc(C(C)C(=O)Nc4ccc(F)cc4)ccc32)n1 (stereo not drawn) [Example 372, N-(4-fluorophenyl)-2-(5-(2-methylpyrimidin-4-yl)-5,6,7,8-tetrahydro-1,5-naphthyridin-2-yl)propanamide]"
4,0.697 µM,"CC(NC(=O)c1ccc(F)cc1)c1ccc2c(n1)CCCN2c1cc2n(n1)CCC2 (stereo not drawn) [Example 369, N-(1-(5-(5,6-dihydro-4H-pyrrolo[1,2-b]pyrazol-2-yl)-5,6,7,8-tetrahydro-1,5-naphthyridin-2-yl)ethyl)-4-fluorobenzamide]"
5,0.0243 µM,"CC(NC(=O)c1ccc(F)cc1)c1ccc2c(n1)CCCN2C(=O)OCCc1ccc(Cl)c(Cl)c1 (stereo not drawn) [Example 326, 3,4-dichlorophenethyl 6-(1-(4-fluorobenzamido)ethyl)-3,4-dihydro-1,5-naphthyridine-1(2H)-carboxylate]"
